From PubChem BioAssay AID252 (DTP/NCI, 2004) come the findings set out here.

SMILES strings stand for the structures. Where “and” joins values, the source holds several entries; their conditions need not be identical. Equal entries are not always repeated. Inconclusive results and toxic doses are left out.

The test has as its system BDF1 mice, intracerebral L1210 leukemia, survival T/C. Briefly: NCI In Vivo Anticancer Drug Screen. Data for tumor model L1210 Leukemia (intracerebral) in B6D2F1 (BDF1) mice. The conditions noted are these: endpoint: mean survival time, higher = longer survival. The gist of the method:
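Readout is the T/C ratio: survival of compound-treated animals over that of vehicle-treated controls, in mice bearing transplantable tumour.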

Consider `C[C@]12C=CC(=O)C=C1CC[C@@H]1[C@@H]2C(=O)C[C@@]2(C)[C@H]1CC[C@]2(O)C(=O)CO`, for which the T/C by setting is: (dose: 100.0 mg/kg/injection, schedule: Q01DX Z (sc), vehicle: steriod suspending solution) 97 % of control; (dose: 120.0 mg/kg/injection, schedule: Q01DX001 (sc), vehicle: steriod suspending solution) 102 % of control; (dose: 180.0 mg/kg/injection, schedule: Q01DX001 (sc), vehicle: steriod suspending solution) 103 % of control; (dose: 200.0 mg/kg/injection, schedule: Q01DX Z (sc), vehicle: steriod suspending solution) 109 % of control; (dose: 240.0 mg/kg/injection, schedule: Q01DX001 (sc), vehicle: steriod suspending solution) 103 % of control; (dose: 250.0 mg/kg/injection, schedule: Q01DX Z (sc), vehicle: steriod suspending solution) 112 % of control. The T/C (dose: 375.0 mg/kg/injection, schedule: Q01DX Z (sc), vehicle: steriod suspending solution) was 102 % of control; the T/C (dose: 500.0 mg/kg/injection, schedule: Q01DX Z (sc), vehicle: steriod suspending solution) was 97 % of control; the T/C (dose: 750.0 mg/kg/injection, schedule: Q01DX Z (sc), vehicle: steriod suspending solution) was 112 % of control.
In the case of `CCOC(=O)C1CCC(NC(=O)N(CCCl)N=O)CC1` (centres undefined), the T/C is 103 % of control and 113 % of control (dose: 4.0 mg/kg/injection, schedule: Q01DX001 (ip), vehicle: other); 110 % of control (dose: 8.0 mg/kg/injection, schedule: Q01DX001 (ip), vehicle: other); 118 % of control (dose: 14.0 mg/kg/injection, schedule: Q01DX001 (ip), vehicle: other); 179 % of control and 203 % of control (dose: 31.0 mg/kg/injection, schedule: Q01DX001 (ip), vehicle: other); 169 % of control and 203 % of control (dose: 33.0 mg/kg/injection, schedule: Q01DX001 (ip), vehicle: other); 225 % of control (dose: 44.0 mg/kg/injection, schedule: Q01DX001 (ip), vehicle: other). Also, the T/C was 203 % of control and 239 % of control (dose: 47.0 mg/kg/injection, schedule: Q01DX001 (ip), vehicle: other); 175 % of control and 303 % of control (dose: 66.0 mg/kg/injection, schedule: Q01DX001 (ip), vehicle: other); 155 % of control (dose: 67.0 mg/kg/injection, schedule: Q01DX001 (ip), vehicle: other); 151 % of control (dose: 70.0 mg/kg/injection, schedule: Q01DX001 (ip), vehicle: other).
With `CCNC1=C(N2CC2)C(=O)C(NCC)=C(N2CC2)C1=O`, the T/C was 101 % of control and 100 % of control (dose: 0.37 mg/kg/injection, schedule: Q01DX009 (ip), vehicle: saline); 104 % of control and 117 % of control (dose: 0.75 mg/kg/injection, schedule: Q01DX009 (ip), vehicle: saline); 124 % of control (dose: 1.5 mg/kg/injection, schedule: Q01DX009 (ip), vehicle: saline).
On to `O=c1cnn(C2OC(CO)C(O)C2O)c(=O)[nH]1` (centres undefined), for which the T/C (dose: 750.0 mg/kg/injection, schedule: Q01DX Z (ip), vehicle: saline) is 158 % of control.
As for `O=NN(CCF)C(=O)NC1CS(=O)(=O)CS(=O)(=O)C1`, the T/C by setting is: (dose: 11.0 mg/kg/injection, schedule: Q01DX001 (ip), vehicle: other) 113 % of control; (dose: 17.0 mg/kg/injection, schedule: Q01DX001 (ip), vehicle: other) 117 % of control; (dose: 25.0 mg/kg/injection, schedule: Q01DX001 (ip), vehicle: other) 120 % of control.
`OCCN1CCN(CCCN2c3ccccc3Sc3ccc(C(F)(F)F)cc32)CC1`: the T/C by setting is: (dose: 12.5 mg/kg/injection, schedule: Q04DX003 (ip), vehicle: saline) 102 % of control; (dose: 25.0 mg/kg/injection, schedule: Q04DX003 (ip), vehicle: saline) 106 % of control; (dose: 50.0 mg/kg/injection, schedule: Q04DX003 (ip), vehicle: saline) 112 % of control; (dose: 100.0 mg/kg/injection, schedule: Q04DX003 (ip), vehicle: saline) 94 % of control.
In the case of `NC(=O)N(CCCl)N=O`, the T/C reads like this: (dose: 1.2 mg/kg/injection, schedule: Q01DX001 (ip), vehicle: saline) 115 % of control; (dose: 1.8 mg/kg/injection, schedule: Q01DX001 (ip), vehicle: saline) 112 % of control; (dose: 3.6 mg/kg/injection, schedule: Q01DX001 (ip), vehicle: saline) 163 % of control; (dose: 5.0 mg/kg/injection, schedule: Q01DX001 (ip), vehicle: carboxymethylcellulose (CMC)) 176 % of control and 187 % of control; (dose: 7.2 mg/kg/injection, schedule: Q01DX001 (ip), vehicle: saline) 159 % of control and 229 % of control; (dose: 7.5 mg/kg/injection, schedule: Q01DX001 (ip), vehicle: carboxymethylcellulose (CMC)) 108 % of control.
With `C[n+]1ccc(Nc2ccc(NC(=O)c3ccc(Nc4cc[n+](C)c5ccc(N)cc45)cc3)cc2)cc1`, the T/C was 93 % of control (dose: 0.5 mg/kg/injection, schedule: Q01DX009 (ip), vehicle: Klucel (hydroxypropylcellulose) (HPC)); 106 % of control (dose: 1.0 mg/kg/injection, schedule: Q01DX009 (ip), vehicle: Klucel (hydroxypropylcellulose) (HPC)); 103 % of control (dose: 2.0 mg/kg/injection, schedule: Q01DX009 (ip), vehicle: Klucel (hydroxypropylcellulose) (HPC)); 110 % of control (dose: 4.0 mg/kg/injection, schedule: Q01DX009 (ip), vehicle: Klucel (hydroxypropylcellulose) (HPC)); 122 % of control (dose: 8.0 mg/kg/injection, schedule: Q01DX009 (ip), vehicle: Klucel (hydroxypropylcellulose) (HPC)).
On to `O=NN(CCCl)C(=O)Nc1ccc(NC(=O)N(CCCl)N=O)cc1`, for which the T/C reads like this: (dose: 44.0 mg/kg/injection, schedule: Q01DX009 (ip), vehicle: carboxymethylcellulose (CMC)) 186 % of control; (dose: 67.0 mg/kg/injection, schedule: Q01DX009 (ip), vehicle: carboxymethylcellulose (CMC)) 181 % of control; (dose: 100.0 mg/kg/injection, schedule: Q01DX009 (ip), vehicle: carboxymethylcellulose (CMC)) 160 % of control; (dose: 109.0 mg/kg/injection, schedule: Q01DX001 (ip), vehicle: carboxymethylcellulose (CMC)) 119 % of control and 124 % of control; (dose: 225.0 mg/kg/injection, schedule: Q01DX009 (ip), vehicle: carboxymethylcellulose (CMC)) 94 % of control; (dose: 264.0 mg/kg/injection, schedule: Q01DX001 (ip), vehicle: carboxymethylcellulose (CMC)) 168 % of control. Further, the T/C was 168 % of control and 182 % of control (dose: 366.0 mg/kg/injection, schedule: Q01DX001 (ip), vehicle: carboxymethylcellulose (CMC)); 181 % of control (dose: 400.0 mg/kg/injection, schedule: Q01DX001 (ip), vehicle: carboxymethylcellulose (CMC)); 155 % of control and 167 % of control (dose: 550.0 mg/kg/injection, schedule: Q01DX001 (ip), vehicle: carboxymethylcellulose (CMC)); 172 % of control (dose: 600.0 mg/kg/injection, schedule: Q01DX001 (ip), vehicle: carboxymethylcellulose (CMC)); 190 % of control (dose: 900.0 mg/kg/injection, schedule: Q01DX001 (ip), vehicle: carboxymethylcellulose (CMC)); 173 % of control (dose: 1350.0 mg/kg/injection, schedule: Q01DX001 (ip), vehicle: carboxymethylcellulose (CMC)).
In the case of `O=NN(CCCl)C(=O)NC1CCCCCCCCCCC1`, the T/C runs as follows: (dose: 298.0 mg/kg/injection, schedule: Q01DX001 (ip), vehicle: other) 103 % of control; (dose: 550.0 mg/kg/injection, schedule: Q01DX001 (ip), vehicle: other) 124 % of control; (dose: 596.0 mg/kg/injection, schedule: Q01DX001 (ip), vehicle: other) 108 % of control; (dose: 1250.0 mg/kg/injection, schedule: Q01DX001 (ip), vehicle: other) 159 % of control and 160 % of control; (dose: 1875.0 mg/kg/injection, schedule: Q01DX001 (ip), vehicle: other) 123 % of control; (dose: 2384.0 mg/kg/injection, schedule: Q01DX001 (ip), vehicle: other) 110 % of control.
For the compound `COc1cc(NS(C)(=O)=O)ccc1Nc1c2cccc(C)c2nc2c(C)cccc12`, the T/C was 111 % of control (dose: 6.25 mg/kg/injection, schedule: Q01DX009 (ip), vehicle: water); 98 % of control (dose: 6.25 mg/kg/injection, schedule: Q01DX009 (sc), vehicle: water); 101 % of control (dose: 12.5 mg/kg/injection, schedule: Q01DX009 (sc), vehicle: water); 101 % of control (dose: 25.0 mg/kg/injection, schedule: Q01DX001 (ip), vehicle: saline); 114 % of control (dose: 25.0 mg/kg/injection, schedule: Q01DX009 (ip), vehicle: water); 103 % of control (dose: 25.0 mg/kg/injection, schedule: Q01DX009 (sc), vehicle: water). The T/C runs as follows: (dose: 50.0 mg/kg/injection, schedule: Q01DX001 (ip), vehicle: saline) 107 % of control; (dose: 50.0 mg/kg/injection, schedule: Q01DX009 (sc), vehicle: water) 104 % of control; (dose: 100.0 mg/kg/injection, schedule: Q01DX001 (ip), vehicle: saline) 110 % of control; (dose: 200.0 mg/kg/injection, schedule: Q01DX001 (ip), vehicle: saline) 112 % of control.
